# Measured values as given in US11667632B2, “2-(1H-indazol-3-yl)-3H-imidazo[4,5-C]pyridines and their anti-inflammatory uses thereof” (BioSplice Therapeutics, Inc., priority 2015, dated 2023).
# Marks after values point to notes of the source that are not given here.
# Tests used:
# [1] = Slurry experiments in various solvents (polymorph screen); type: physicochemical
# Protocol: Slurry experiments in various solvents were performed. Approximately 30-80 mg of the starting solid (a non-stoichiometric hydrate of Form 1 having between […] and about 20% by weight water) was slurried in 39 different solvents (pure and binary solvents; the ratio of organic solvent/water (V/V) was […]) at RT and 50° C. for 5 days. Three solvates, one non-stoichiometric hydrate, and eleven non-solvated forms were identified. […] XRD of both wet and dry samples were scanned (FIG. 12A (dry sample)).
# The slurry experiments identified 3 solvated forms from wet samples (Solvates 1, 2, and 3); 2 non-stoichiometric hydrates of Form 1 (Forms 12 and 13); and 11 non-solvated forms (Forms 1-11). In some instances, similar XRD scans with minor differences were obtained. These were considered to be part of the same class (e.g., the same form). For example, XRD scans of Form 2 and Form 2* were similar and were considered to belong to the same class. The solvated forms were obtained from wet sample analysis; after drying, the sample indicated a different XRD.
# Solvate 1 was obtained from acetone at RT, and after drying, a low crystallinity solid was generated. Solvate 2 was obtained from acetone (at RT) and acetone/water (at RT), and after drying, Form 4** was generated. Solvate 3 was obtained from EtOH/water at RT, and after drying, Form 2 was generated.
# [2] = Dynamic vapor sorption (DVS) scan; type: physicochemical; settings: for water absorption (DVS scan): at 90% RH
# Description: The purity of the Form 13 sample was 98.8%; the KF of an undried Form 13 sample was 35.7%.
# [3] = Competitive slurry experiments between polymorph forms (thermodynamic stability); type: physicochemical; settings: slurried 3-5 days, XRD
# Protocol: In order to find out the thermodynamic stability between the different forms, several competitive slurry experiments were carried out. Form 1, Form 2, Form 2*, Form 3, Form 4, Form 4*, Form 4**, Form 5, Form 7, Form 8, Form 9, Form 10, Form 11, Form 11*, and Form 13 (10 mg for each) was mixed and slurried in 2 mL of solvent at both RT and 50° C. The solids were slurried for 3-5 days and then analyzed by XRD.
# In order to find out the thermodynamic stability between Form 13 and Form 9, several competitive slurry experiments were carried out. 15 mg of Form 1, Form 9 and Form 13 solid were mixed in 1 mL of toluene, IPAc, and n-butyl acetate, and slurried for 3 days at RT and 50° C.
# The residual solid was analyzed by XRD.
# IL-6 = assay: Inhibition of IL-6 in LPS-stimulated human monocyte cells (THP-1), HTRF; type: cell-based; settings: Homo sapiens; THP-1 cells, LPS 500 ng/mL, IL-6 by HTRF
# Protocol: Human Monocyte Cell Culture: A human monocyte cell line (THP-1 cells; Catalog #TIB-202, ATCC, Manassas, Va.) was cultured in Roswell Park Memorial Institute (RPMI) 1640 Medium (Catalog #21870-100, Buffalo, N.Y.) with 1% L-glutamine, 1% HEPES, 1% sodium pyruvate, 2% sodium bicarbonate supplemented with 100 units/mL penicillin, 50 μg/mL streptomycin, 2-mercaptoethanol (0.05 mM) [basal medium] and 10% fetal bovine serum (Catalog #16140089, Life Technologies, Carlsbad, Calif.) at 37° C. and 5% CO2.
# Compound Screening: THP-1 cells were cultured in basal media with 1% FBS for 24 hours before the start of the assay. Each compound of Formula (I) was dissolved in DMSO as a 10 mM stock and used to prepare compound source plates. Serial dilution (1:3, 10-point dose-response curves starting from 10 μM) and compound transfer was performed using the ECHO 550 (Labcyte, Sunnyvale, Calif.) into 384-well white low volume assay plates (Greiner Bio-One) with appropriate DMSO backfill for a final DMSO concentration of 0.1%. THP-1 cells were plated at 5000 cells/well in the 384-well plates and incubated at 37° C. for 2 h. 500 ng/mL of LPS was added after 2 hours and cells were incubated for another 22 hours at 37° C. Plates were spun in a centrifuge for 1 minute at 10,000 rpm and a mixture of anti-IL-6 XL665, and anti-IL-6 Cryptate diluted in reconstitution buffer (Cisbio Inc.) was added to each well. Following incubation for 3 hrs at room temperature, homogeneous time-resolved fluorescence (HTRF) was measured using the Envision (Perkin Elmer) at 665 nm and […]. The ratio of fluorescence at 665 nm to 620 nm was used as a readout for IL-6 quantification. All samples were processed in duplicate. Readings were normalized to DMSO treated cells and normalized activities were utilized for EC50 calculations using the dose-response log (inhibitor) vs. response -variable slope (four parameters) nonlinear regression feature available in GraphPad Prism 5.0 (or Dotmatics). For EC50 of >10 μM, the percent inhibition at 10 μM is provided.
# [4] = slurry in Acetonitrile/water (5% water), RT
# [5] = slurry in EA/water (5% water), RT
# [6] = slurry in Heptane/water (5% water), RT
# [7] = slurry in IPAc/water (5% water), RT
# [8] = slurry in MA/water (5% water), 50° C.
# [9] = slurry in MIBK/water (5% water), RT
# [10] = slurry in MeOH/water (5% water), RT
# [11] = slurry in MtBE/water (5% water), RT
# [12] = slurry in n-Butyl acetate/water (5% water), RT
# [13] = slurry in Acetonitrile/water (5% water), 50° C.
# [14] = slurry in DCM/water (5% water), 50° C.
# [15] = slurry in DCM/water (5% water), RT
# [16] = slurry in Heptane/water (5% water), 50° C.
# [17] = slurry in IPAc/water (5% water), 50° C.
# [18] = slurry in MA/water (5% water), RT
# [19] = slurry in MIBK/water (5% water), 50° C.
# [20] = slurry in MeOH/water (5% water), 50° C.
# [21] = slurry in MtBE/water (5% water), 50° C.
# [22] = slurry in Toluene/water (5% water), 50° C.
# [23] = slurry in Toluene/water (5% water), RT
# [24] = slurry in n-Butanol/water (5% water), 50° C.
# [25] = slurry in n-Butanol/water (5% water), RT
# [26] = slurry in n-Butyl acetate/water (5% water), 50° C.
# [27] = slurry in EtOH/water (5% water), RT
# [28] = slurry in Acetone/water (5% water), RT
smiles,measurement,setting,value
CC(C)CC(=O)Nc1cncc(-c2ccc3[nH]nc(-c4nc5c(-c6cccc(F)c6)cncc5[nH]4)c3c2)c1 [Form 12],"Form, Dry",[1]; [4],Form 1
same,"Form, Wet",[1]; [4],Form 12
same,"Form, Dry",[1]; [5],Form 1
same,"Form, Wet",[1]; [5],Form 12
same,"Form, Dry",[1]; [6],Form 12
same,"Form, Wet",[1]; [6],Form 13
same,"Form, Dry",[1]; [7],Form 1
same,"Form, Wet",[1]; [7],Form 12
same,"Form, Dry",[1]; [8],Form 4
same,"Form, Wet",[1]; [8],Form 12
same,"Form, Dry",[1]; [9],Form 1
same,"Form, Wet",[1]; [9],Form 12
same,"Form, Dry",[1]; [10],Form 1
same,"Form, Wet",[1]; [10],Form 12
same,"Form, Dry",[1]; [11],Form 1
same,"Form, Wet",[1]; [11],Form 12
same,"Form, Dry",[1]; [12],Form 12
same,"Form, Wet",[1]; [12],Form 13
CC(C)CC(=O)Nc1cncc(-c2ccc3[nH]nc(-c4nc5c(-c6cccc(F)c6)cncc5[nH]4)c3c2)c1 [Form 1],water absorption (DVS scan),[2],17%
CC(C)CC(=O)Nc1cncc(-c2ccc3[nH]nc(-c4nc5c(-c6cccc(F)c6)cncc5[nH]4)c3c2)c1 [Form 13],thermodynamic stability between forms (competitive slurry),[3]; water at RT and 50° C.,most stable
same,water absorption (DVS scan),[2],17%
same,"Form, Dry",[1]; [13],Form 13
same,"Form, Wet",[1]; [13],Form 13
same,"Form, Dry","[1]; slurry in DCM, 50° C.",Form 13
same,"Form, Wet","[1]; slurry in DCM, 50° C.",Form 13
same,"Form, Dry",[1]; [14],Form 1
same,"Form, Wet",[1]; [14],Form 13
same,"Form, Dry",[1]; [15],Form 1
same,"Form, Wet",[1]; [15],Form 13
same,"Form, Dry","[1]; slurry in Heptane, 50° C.",Form 13
same,"Form, Wet","[1]; slurry in Heptane, 50° C.",Form 13
same,"Form, Dry",[1]; [16],Form 1
same,"Form, Wet",[1]; [16],Form 13
same,"Form, Dry",[1]; [6],Form 12
same,"Form, Wet",[1]; [6],Form 13
same,"Form, Dry",[1]; [17],Form 13
same,"Form, Wet",[1]; [17],Form 13
same,"Form, Dry",[1]; [18],Form 1
same,"Form, Wet",[1]; [18],Form 13
same,"Form, Dry",[1]; [19],Form 1
same,"Form, Wet",[1]; [19],Form 13
same,"Form, Dry","[1]; slurry in MeOH, RT",Form 1
same,"Form, Wet","[1]; slurry in MeOH, RT",Form 13
same,"Form, Dry",[1]; [20],Form 13
same,"Form, Wet",[1]; [20],Form 13
same,"Form, Dry",[1]; [21],Form 13
same,"Form, Wet",[1]; [21],Form 13
same,"Form, Dry",[1]; [22],Form 13
same,"Form, Wet",[1]; [22],Form 13
same,"Form, Dry",[1]; [23],Form 1
same,"Form, Wet",[1]; [23],Form 13
same,"Form, Dry",[1]; [24],Form 1
same,"Form, Wet",[1]; [24],Form 13
same,"Form, Dry",[1]; [25],Form 13
same,"Form, Wet",[1]; [25],Form 13
same,"Form, Dry",[1]; [26],Form 1
same,"Form, Wet",[1]; [26],Form 13
same,"Form, Dry",[1]; [12],Form 12
same,"Form, Wet",[1]; [12],Form 13
same,"Form, Dry","[1]; slurry in water, 50° C.",Form 13
same,"Form, Wet","[1]; slurry in water, 50° C.",Form 13
same,"Form, Dry","[1]; slurry in water, RT",Form 1
same,"Form, Wet","[1]; slurry in water, RT",Form 13
CC(C)CC(=O)Nc1cncc(-c2ccc3[nH]nc(-c4nc5c(-c6cccc(F)c6)cncc5[nH]4)c3c2)c1 [Form 9],change of form before and after the DVS scan,[2],did not change its form
same,water absorption (DVS scan),[2],0.8%
CC(C)CC(=O)Nc1cncc(-c2ccc3[nH]nc(-c4nc5c(-c6cccc(F)c6)cncc5[nH]4)c3c2)c1 [Solvate 3],"Form, Dry",[1]; [27],Form 2
same,"Form, Wet",[1]; [27],Solvate 3
CN1CCN(c2cncc3[nH]c(-c4n[nH]c5ccc(-c6cccnc6)cc45)nc23)CC1 [4*],thermodynamic stability between forms (competitive slurry),[3]; EA at RT and 50° C.,most stable
same,EC50,IL-6,74 nM
CC(C)CC(=O)Nc1cncc(-c2ccc3[nH]nc(-c4nc5c(-c6cccc(F)c6)cncc5[nH]4)c3c2)c1 [Solvate 2],"Form, Dry","[1]; slurry in Acetone, 50° C.",Form 4**
same,"Form, Wet","[1]; slurry in Acetone, 50° C.",Solvate 2
same,"Form, Dry",[1]; [28],Form 4**
same,"Form, Wet",[1]; [28],Solvate 2
CC(C)CC(=O)Nc1cncc(-c2ccc3[nH]nc(-c4nc5c(-c6cccc(F)c6)cncc5[nH]4)c3c2)c1 [Solvate 1],"Form, Dry","[1]; slurry in Acetone, RT",Low
same,"Form, Wet","[1]; slurry in Acetone, RT",Solvate 1
